From US20190231884A1, “SYNTHETIC PULMONARY SURFACTANT COMPOSITION FOR TREATING LUNG CONDITIONS” (priority 2016, published 2019)
Converted amounts (≈) assume the structure as drawn.

How the values were obtained:
[1] = tested on: M. tuberculosis H37Rv reference strain; assay: MGIT 960 mycobacterial growth inhibition, H37Rv; assay type: cell-based, Mycobacterium tuberculosis; details: for GROWTH UNITS (Day 8) / SUSCEPTIBILITY MIC99: H37Rv
[2] = tested on: M. tb X51 clinical isolate; assay: microbe, parasite or virus in culture; assay type: cell-based, Mycobacterium tuberculosis; details: for GROWTH UNITS (Day 8) / SUSCEPTIBILITY MIC99: X51
[3] = Linezolid 1 μg/ml, growth control GU 400

CC(=O)NC[C@H]1CN(c2ccc(N3CCOCC3)c(F)c2)C(=O)O1 [Linezolid, (S)-N-[[3-(3-fluoro-4-morpholinylpheny1)-2-oxo-5-oxazolidinyl]methyl] acetamide]
GROWTH UNITS (Day 8) ([1]; Linezolid 0.125 μg/ml): 12030 | SUSCEPTIBILITY MIC99 ([1]; Linezolid 0.125 μg/ml): − (the GU of the drug-containing tube were more than 400, the results were defined as showing resistance) | GROWTH UNITS (Day 8) ([1]; Linezolid 0.25 μg/ml): 12878 | SUSCEPTIBILITY MIC99 ([1]; Linezolid 0.25 μg/ml): − (the GU of the drug-containing tube were more than 400, the results were defined as showing resistance) | GROWTH UNITS (Day 8) ([1]; Linezolid 0.5 μg/ml): 4674 | SUSCEPTIBILITY MIC99 ([1]; Linezolid 0.5 μg/ml): − (the GU of the drug-containing tube were more than 400, the results were defined as showing resistance) | SUSCEPTIBILITY MIC99 ([1]; Linezolid 1 μg/ml): + (when the GU of the drug-containing tube were less than 400, the results were considered to show susceptibility) | GROWTH UNITS (Day 8) [1, 3]: 377 | MIC ([1]; Mycobacterium tuberculosis, H37Rv Strain, read-out: Minimum Inhibitory Concentration): 1 µg/mL (≈ 2.96 µM) | MIC ([2]; Mycobacterium tuberculosis, read-out: Minimum Inhibitory Concentration): 1 µg/mL (≈ 2.96 µM) | GROWTH UNITS (Day 8) ([2]; Linezolid 0.125 μg/ml): 9164 | SUSCEPTIBILITY MIC99 ([2]; Linezolid 0.125 μg/ml): − (the GU of the drug-containing tube were more than 400, the results were defined as showing resistance) | GROWTH UNITS (Day 8) ([2]; Linezolid 0.25 μg/ml): 6727 | SUSCEPTIBILITY MIC99 ([2]; Linezolid 0.25 μg/ml): − (the GU of the drug-containing tube were more than 400, the results were defined as showing resistance) | GROWTH UNITS (Day 8) ([2]; Linezolid 0.5 μg/ml): 714 | SUSCEPTIBILITY MIC99 ([2]; Linezolid 0.5 μg/ml): − (the GU of the drug-containing tube were more than 400, the results were defined as showing resistance) | SUSCEPTIBILITY MIC99 ([2]; Linezolid 1 μg/ml): + (when the GU of the drug-containing tube were less than 400, the results were considered to show susceptibility) | GROWTH UNITS (Day 8) [2, 3]: 0
